For experiment [1], the target named is T1, α1A-AR receptor (Homo sapiens, UniProt P35348).
T1 sequence (P35348 1-466): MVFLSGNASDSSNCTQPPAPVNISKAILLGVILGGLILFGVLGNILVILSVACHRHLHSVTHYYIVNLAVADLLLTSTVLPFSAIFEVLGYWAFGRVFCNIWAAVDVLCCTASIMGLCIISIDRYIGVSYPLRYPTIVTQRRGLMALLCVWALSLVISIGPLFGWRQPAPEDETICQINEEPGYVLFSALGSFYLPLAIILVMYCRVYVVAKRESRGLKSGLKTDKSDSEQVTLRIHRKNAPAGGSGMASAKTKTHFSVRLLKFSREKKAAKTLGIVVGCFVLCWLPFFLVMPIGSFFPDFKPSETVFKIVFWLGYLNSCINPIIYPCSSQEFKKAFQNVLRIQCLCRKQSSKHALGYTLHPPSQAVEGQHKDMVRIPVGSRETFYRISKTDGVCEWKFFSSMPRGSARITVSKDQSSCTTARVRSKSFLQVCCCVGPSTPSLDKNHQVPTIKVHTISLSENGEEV
The following applies: as compared to noradrenaline; InsPs accumulation assay; Blue et al., Table 1; cited from earlier work.

For experiment [2], the target named is T1, α1A-AR receptor. To be noted: as compared to noradrenaline; FLIPR assay; Blue et al., Table 1; cited from earlier work.
Experiment [3] has as its system neurogenic orthostatic hypotension (nOH) patients. The experiment in a line: Treatment of patients having nOH (Example 1). It counts as in vivo, human. To be noted: 5 mg oral tablets twice daily, follow-up after one week of treatment. The protocol:
Patients between the age of 40 and 80 years old that have been diagnosed with symptomatic orthostatic hypotension due to pure autonomic failure, multiple system atrophy or Parkinson's disease (i.e., PD plus symptoms) present for treatment. At the time of presentation, autonomic function testing is conducted to confirm the diagnosis of autonomic dysfunction including sinus arrhythmia and the Valsalva maneuver.
The patients are given 5 mg dabuzalgron oral tablets and are instructed to take one tablet shortly after waking up in the morning and a second tablet 4-6 hours later each day.
Some patients return for a follow-up visit after one week of treatment. […] In the follow-up visit supine systolic blood pressure (SSBP) may be determined.

Like-named read-outs stand apart in the source and are kept apart here.

Take `Cc1c(OCC2=NCCN2)ccc(Cl)c1NS(C)(=O)=O.Cl` [RO 115-1240 (dabuzalgron) HCl salt, N-[6-chloro-3-(4,5-dihydro-1H-imidazol-2-ylmethoxy)-2-methylphenyl]methanesulfonamide hydrochloride]: the values for the intrinsic activity at α1A-AR receptor [1] and on α1A-AR receptor [2] were 0.27 and 0.51, respectively.

On to `Cc1c(OCC2=NCCN2)ccc(Cl)c1NS(C)(=O)=O` [RO 115-1240 (dabuzalgron) free base, N-[6-chloro-3-(4,5-dihydro-1H-imidazol-2-ylmethoxy)-2-methylphenyl]methanesulfonamide], for which the “symptoms of nOH as compared to the first visit” value in experiment [3] was “symptoms of nOH improve”. Moreover, the intrinsic activity at α1A-AR receptor [1] is listed as 0.31.

The values above are taken from US20220401415A1, “METHODS FOR TREATING NEUROLOGICAL DISORDERS WITH ALPHA1A-AR PARTIAL AGONISTS” (Curasen Therapeutics, Inc., priority 2019, published 2022).
